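A five-concentration, 48-hour dose response in 96-well plates underlies each endpoint, interpolated linearly between surrounding concentrations. Here, GI50 denotes the concentration required for 50% inhibition of growth.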 Activity calls are given as the source filed them. Cut-off read from the data, not from the text of the source: active = GI50 up to about 1.1 µM and inactive = higher.
How the values were obtained:
Assay in all cases: NCI anticancer screen, dose series, 48 h
[1] = test system: A549
[2] = test system: DU-145
[3] = test system: EKVX
[4] = test system: HCT-116
[5] = test system: HCT-15
[6] = test system: Hs-578T
[7] = test system: M14
[8] = test system: MCF7
[9] = test system: MDA-N
[10] = test system: OVCAR-4
[11] = test system: SK-MEL-28
[12] = test system: SK-MEL-2
[13] = test system: SK-MEL-5
[14] = test system: SK-OV-3
[15] = test system: SN12C
[16] = test system: T47D
[17] = test system: UACC-62
[18] = test system: HOP-92
[19] = test system: SF-539

O=C(NNc1nc(-c2ccccc2)cs1)Nc1ccccc1
GI50 [1]: 19.5 µM (inactive)
GI50 [2]: 31.8 µM (inactive)
GI50 [3]: 32 µM (inactive)
GI50 [4]: 25.5 µM (inactive)
GI50 [5]: 26.6 µM
GI50 [6]: 28.9 µM (inactive)
GI50 [7]: 28.5 µM (inactive)
GI50 [8]: 25.3 µM (inactive)
GI50 [9]: 24.2 µM (inactive)
GI50 [10]: 28.7 µM (inactive)
GI50 [11]: 30.4 µM (inactive)
GI50 [12]: 16.1 µM (inactive)
GI50 [13]: 20.7 µM (inactive)
GI50 [14]: 22.6 µM (inactive)
GI50 [15]: 30.9 µM (inactive)
GI50 [16]: 23.2 µM (inactive)
GI50 [17]: 19.4 µM (inactive)

CCN(CC)CCNc1nc(N)c(C#N)c(C#N)c1C#N
GI50 [1]: > 10 µM (inactive)
GI50 [2]: > 10 µM (inactive)
GI50 [3]: > 10 µM (inactive)
GI50 [4]: > 10 µM (inactive)
GI50 [5]: > 10 µM
GI50 [18]: > 10 µM (inactive)
GI50 [6]: > 10 µM (inactive)
GI50 [7]: > 10 µM (inactive)
GI50 [8]: > 10 µM (inactive)
GI50 [9]: > 10 µM (inactive)
GI50 [10]: > 10 µM (inactive)
GI50 [19]: > 10 µM (inactive)
GI50 [11]: > 10 µM (inactive)
GI50 [13]: > 10 µM (inactive)
GI50 [14]: > 10 µM (inactive)
GI50 [15]: > 10 µM (inactive)
GI50 [16]: > 10 µM (inactive)
GI50 [17]: > 10 µM (inactive)

Clc1nc(Cl)c(Cc2ccccc2)c(Cl)n1
GI50 [1]: 12.5 µM (inactive)
GI50 [2]: 14.8 µM (inactive)
GI50 [3]: 19 µM (inactive)
GI50 [4]: 1.91 µM (inactive)
GI50 [5]: 4.55 µM
GI50 [6]: 2.66 µM (inactive)
GI50 [7]: 2.82 µM (inactive)
GI50 [8]: 5.12 µM (inactive)
GI50 [9]: 3.59 µM (inactive)
GI50 [10]: 3.67 µM (inactive)
GI50 [19]: 5.3 µM (inactive)
GI50 [11]: 10.5 µM (inactive)
GI50 [12]: 7.45 µM (inactive)
GI50 [13]: 2.37 µM (inactive)
GI50 [14]: 11.5 µM (inactive)
GI50 [15]: 4.39 µM (inactive)
GI50 [16]: 9.12 µM (inactive)
GI50 [17]: 3.69 µM (inactive)

COc1ccc(C2Oc3c(cccc3OC)C=C2[N+](=O)[O-])cc1OC (configuration not stated)
GI50 [1]: 14.7 µM (inactive)
GI50 [2]: 11.7 µM (inactive)
GI50 [3]: 45.2 µM (inactive)
GI50 [4]: 4.55 µM (inactive)
GI50 [5]: 3.46 µM
GI50 [6]: 6.25 µM (inactive)
GI50 [7]: 3.82 µM (inactive)
GI50 [8]: 4.12 µM (inactive)
GI50 [9]: 5.19 µM (inactive)
GI50 [10]: 18.7 µM (inactive)
GI50 [11]: 4.22 µM (inactive)
GI50 [13]: 4.14 µM (inactive)
GI50 [14]: 4.9 µM (inactive)
GI50 [15]: 5.55 µM (inactive)
GI50 [16]: 12.2 µM (inactive)
GI50 [17]: 4.16 µM (inactive)

O=C1OC(C2Cc3ccc4c(c3C2=O)CCCC4)c2ccccc21 (configuration not stated)
GI50 [1]: 35.9 µM (inactive)
GI50 [2]: 74.3 µM (inactive)
GI50 [3]: 44.6 µM (inactive)
GI50 [4]: 40 µM (inactive)
GI50 [5]: 28.4 µM
GI50 [6]: 18 µM (inactive)
GI50 [7]: 50.4 µM (inactive)
GI50 [8]: 33.9 µM (inactive)
GI50 [9]: 34.8 µM (inactive)
GI50 [10]: 24.8 µM (inactive)
GI50 [19]: 24.7 µM (inactive)
GI50 [11]: 52.5 µM (inactive)
GI50 [12]: 24.5 µM (inactive)
GI50 [13]: 33.4 µM (inactive)
GI50 [14]: 73.6 µM (inactive)
GI50 [15]: 28.5 µM (inactive)
GI50 [16]: 63 µM (inactive)
GI50 [17]: 23.7 µM (inactive)

O=C(c1cc(Cl)ccc1Cl)N1CCN(c2cccc(Cl)c2)CC1
GI50 [1]: 11 µM (inactive)
GI50 [2]: 31.5 µM (inactive)
GI50 [3]: 22.9 µM (inactive)
GI50 [4]: 11.4 µM (inactive)
GI50 [5]: 8.85 µM
GI50 [18]: > 10 µM (inactive)
GI50 [6]: 21.9 µM (inactive)
GI50 [7]: 22.2 µM (inactive)
GI50 [8]: 12.4 µM (inactive)
GI50 [9]: 1.87 µM (inactive)
GI50 [10]: 33 µM (inactive)
GI50 [19]: 13.6 µM (inactive)
GI50 [11]: 15.6 µM (inactive)
GI50 [13]: 6.59 µM (inactive)
GI50 [15]: 4.09 µM (inactive)
GI50 [16]: 10.7 µM (inactive)

Cc1cc2c(cc1C)OC(=O)CC2
GI50 [1]: > 100 µM (inactive)
GI50 [2]: > 100 µM (inactive)
GI50 [3]: > 100 µM (inactive)
GI50 [4]: > 100 µM (inactive)
GI50 [18]: > 100 µM (inactive)
GI50 [6]: > 100 µM (inactive)
GI50 [7]: > 100 µM (inactive)
GI50 [8]: > 100 µM (inactive)
GI50 [9]: > 100 µM (inactive)
GI50 [10]: > 100 µM (inactive)
GI50 [19]: > 100 µM (inactive)
GI50 [11]: > 100 µM (inactive)
GI50 [12]: > 100 µM (inactive)
GI50 [13]: > 100 µM (inactive)
GI50 [15]: > 100 µM (inactive)
GI50 [16]: > 100 µM (inactive)
GI50 [17]: > 100 µM (inactive)

Oc1cnc2c(O)cccc2c1 [JINEOL]
GI50 [1]: 40.7 µM (inactive)
GI50 [2]: 57.3 µM (inactive)
GI50 [3]: 15.9 µM (inactive)
GI50 [4]: 40.8 µM (inactive)
GI50 [5]: 33.5 µM
GI50 [18]: 41 µM (inactive)
GI50 [6]: > 100 µM (inactive)
GI50 [7]: 24.5 µM (inactive)
GI50 [8]: 30.7 µM (inactive)
GI50 [9]: 57.1 µM (inactive)
GI50 [19]: 30.3 µM (inactive)
GI50 [11]: 76.6 µM (inactive)
GI50 [12]: 64.4 µM (inactive)
GI50 [14]: 32.6 µM (inactive)
GI50 [15]: 37.5 µM (inactive)
GI50 [16]: 29 µM (inactive)
GI50 [17]: 32.7 µM (inactive)
